The source of these data is US9290515B2, “Cephem derivative having catechol group” (SHIONOGI & CO., LTD., priority 2011, dated 2016).

Converted amounts (≈) assume the structure as drawn. Read-outs that look alike come from different tables or passages of the source.

Format in all cases: cell-based
For assay [1], the system named is P. aeruginosa SR27001(MDRP, IMP-1+). Put plainly: MIC by broth microdilution (CLSI), P. aeruginosa SR27001. To be noted: Pseudomonas aeruginosa, read-out: minimum growth inhibition concentration (MIC). On the procedure:
(§1) Measurement of a minimum growth inhibition concentration (MIC: μg/mL) was performed according to CLSI (Clinical and Laboratory Standards Institute) method, by broth microdilution method, using an inoculation microbe amount of 10000 cfu/well and cation-adjusted Mueller Hinton broth containing human-derived 20 μM apo-transferrin as a test medium.
In general terms: In broth dilution the organism is exposed to a series of concentrations in liquid medium.

Assay [2] relates to E. coli ATCC BAA-196_TEM-10. Put plainly: MIC by broth microdilution (CLSI), E. coli ATCC BAA-196. To be noted: Escherichia coli. On the procedure: as §1
In assay [3] the test system is K. pneumoniae ATCC 700603_SHV18. Put plainly: MIC by broth microdilution (CLSI), K. pneumoniae ATCC 700603. The following applies: Klebsiella pneumoniae. On the procedure:
as §1

The test system of assay [4] is P. aeruginosa SR27060(metallo). The assay is described as follows: MIC by broth microdilution (CLSI), P. aeruginosa SR27060. To be noted: Pseudomonas aeruginosa; P. aeruginosa SR27060, IMP-1, MBL producing carbapenem-resistant strain; 10000 cfu/well; cation-adjusted Mueller Hinton broth with 20 μM human apo-transferrin; read-out: minimum growth inhibition concentration (MIC). The protocol: as §1

Another assay concerns A. baumannii SR24396. Put plainly: MIC by broth microdilution (CLSI), A. baumannii SR24396. To be noted: Acinetobacter baumannii, 10000 cfu/well, cation-adjusted Mueller Hinton broth with 20 μM human apo-transferrin, read-out: minimum growth inhibition concentration (MIC). The protocol: as §1
The test system of another assay is P. aeruginosa SR24. The assay is described as follows: MIC by broth microdilution (CLSI), P. aeruginosa SR24. To be noted: Pseudomonas aeruginosa. On the procedure:
as §1

[5] abbreviates: P. aeruginosa SR27001, MDRP, IMP-1, MBL producing carbapenem-resistant strain, 10000 cfu/well, cation-adjusted Mueller Hinton broth with 20 μM human apo-transferrin.
The mark [6] stands for this setting: ATCCBAA196, E. coli ATCC BAA-196, TEM-10, ESBL producing strain, 10000 cfu/well, cation-adjusted Mueller Hinton broth with 20 μM human apo-transferrin, read-out: minimum growth inhibition concentration (MIC).
[7] abbreviates: ATCC700603, K. pneumoniae ATCC 700603, SHV-18, ESBL producing strain, 10000 cfu/well, cation-adjusted Mueller Hinton broth with 20 μM human apo-transferrin, read-out: minimum growth inhibition concentration (MIC).
The mark [8] stands for this setting: P. aeruginosa SR24, Ceftazidime-sensitive strain, 10000 cfu/well, cation-adjusted Mueller Hinton broth with 20 μM human apo-transferrin, read-out: minimum growth inhibition concentration (MIC).

For `C[N+]1(CC2=C(C(=O)[O-])N3C(=O)[C@@H](NC(=O)/C(=N\OC[C@H](NC(=O)c4ccc(O)c(O)c4Cl)C(=O)O)c4csc(N)n4)[C@H]3SC2)[C@@H]2CC[C@H]1C[C@@H](N)C2` (some centres unmarked) [Compound I-1], the MIC in assay [1] (setting [5]) was 0.5 µg/mL (≈ 0.642 µM); in assay [2] (setting [6]) it was 0.25 µg/mL (≈ 0.321 µM); in assay [3] (setting [7]), 2 µg/mL (≈ 2.57 µM); in assay [4], 0.25 µg/mL (≈ 0.321 µM); in the assay with A. baumannii SR24396 it was not above 0.031 µg/mL; with P. aeruginosa SR24 (setting [8]), 0.125 µg/mL (≈ 0.16 µM).
In the case of `NCC[N+]1(CC2=C(C(=O)[O-])N3C(=O)[C@@H](NC(=O)/C(=N\OC[C@H](NC(=O)c4ccc(O)c(O)c4Cl)C(=O)O)c4csc(N)n4)[C@H]3SC2)CCCC1` [Compound I-2], the MIC in assay [1] (setting [5]) was 0.25 µg/mL (≈ 0.332 µM); in assay [2] (setting [6]), 0.25 µg/mL (≈ 0.332 µM); in assay [3] (setting [7]), 4 µg/mL (≈ 5.31 µM); in assay [4], 0.125 µg/mL (≈ 0.166 µM); in the assay with A. baumannii SR24396, 0.063 µg/mL (≈ 0.0836 µM); with P. aeruginosa SR24 (setting [8]), 0.125 µg/mL (≈ 0.166 µM).
In the case of `Nc1nc(/C(=N/OC[C@H](NC(=O)c2ccc(O)c(O)c2Cl)C(=O)[O-])C(=O)N[C@@H]2C(=O)N3C(C(=O)[O-])=C(C[n+]4cccc5c4CCC5)CS[C@H]23)cs1.[Na+]` [Compound I-3], the MIC in assay [1] (setting [5]) amounted to 4 µg/mL; in assay [2] (setting [6]), 1 µg/mL; in assay [4], 1 µg/mL; in the assay with A. baumannii SR24396, 0.125 µg/mL; in the assay with P. aeruginosa SR24 (setting [8]) it was 0.25 µg/mL.
As for `CC1(C)CCc2ccc[n+](CC3=C(C(=O)[O-])N4C(=O)[C@@H](NC(=O)/C(=N\OC[C@H](NC(=O)c5ccc(O)c(O)c5Cl)C(=O)[O-])c5csc(N)n5)[C@H]4SC3)c21.[Na+]` [Compound I-4], the figures for the MIC (in assay [2] (setting [6]); in the assay on P. aeruginosa SR24 (setting [8])) were 0.5 µg/mL and 0.125 µg/mL, respectively.
As to `Nc1nc(/C(=N/OC[C@H](NC(=O)c2ccc(O)c(O)c2Cl)C(=O)[O-])C(=O)N[C@@H]2C(=O)N3C(C(=O)[O-])=C(Cn4ccc(=O)c(O)c4)CS[C@H]23)cs1.[Na+].[Na+]` [Compound I-5], the figures for the MIC (in assay [2] (setting [6]); with A. baumannii SR24396) were 8 µg/mL and not above 0.031 µg/mL, respectively.
For the molecule `C[N+]1(CC2=C(C(=O)[O-])N3C(=O)[C@@H](NC(=O)/C(=N\OC(CNC(=O)c4ccc(O)c(O)c4Cl)C(=O)[O-])c4csc(N)n4)[C@H]3SC2)[C@@H]2CCC[C@H]1CC2.[Na+]` (some centres unmarked) [Compound I-10], the MIC turned out to be 2 µg/mL in assay [1]; 1 µg/mL in assay [2] (ATCCBAA196, read-out: minimum growth inhibition concentration (MIC)); 0.5 µg/mL in assay [3] (ATCC700603, read-out: minimum growth inhibition concentration (MIC)); 0.25 µg/mL in the assay on P. aeruginosa SR24 (SR24, read-out: minimum growth inhibition concentration (MIC)).
With `C[N+]1(CC2=C(C(=O)[O-])N3C(=O)[C@@H](NC(=O)/C(=N\O[C@@H](CNC(=O)c4ccc(O)c(O)c4Cl)C(=O)[O-])c4csc(N)n4)[C@H]3SC2)CC2CCCC2C1.[Na+]` (some centres unmarked) [Compound I-11], the MIC turned out to be 4 µg/mL in assay [1] (setting [5]), 1 µg/mL in assay [2] (setting [6]), 4 µg/mL in assay [3] (setting [7]) and 0.25 µg/mL in the assay on P. aeruginosa SR24 (setting [8]).
Consider `Nc1nc(/C(=N/O[C@@H](CNC(=O)c2ccc(O)c(O)c2Cl)C(=O)[O-])C(=O)N[C@@H]2C(=O)N3C(C(=O)[O-])=C(C[N+]45CCC(CNC(=O)CC[C@H](N)C(=O)O)(CC4)CC5)CS[C@H]23)cs1.[Na+]` [Compound I-12], for which the MIC in assay [1] (setting [5]) came out at 4 µg/mL; in assay [2] (setting [6]) it was 2 µg/mL; in assay [3] (setting [7]), 1 µg/mL; with P. aeruginosa SR24 (setting [8]), 0.25 µg/mL.
Take `CC1(C)CCc2ccc[n+](CC3=C(C(=O)[O-])N4C(=O)[C@@H](NC(=O)/C(=N\O[C@@H](CNC(=O)c5ccc(O)c(O)c5Cl)C(=O)[O-])c5csc(N)n5)[C@H]4SC3)c21.[Na+]` [Compound I-14]: the values for the MIC (in assay [2] (setting [6]); in assay [3] (setting [7]); in the assay on P. aeruginosa SR24 (setting [8])) were 0.5 µg/mL, 1 µg/mL and 0.5 µg/mL, respectively.
Turning to `Nc1nc(/C(=N/OC(CNC(=O)c2ccc(O)c(O)c2Cl)C(=O)[O-])C(=O)N[C@@H]2C(=O)N3C(C(=O)[O-])=C(C[N+]45CCC(CC4)CC5)CS[C@H]23)c(Cl)s1.[Na+]` (some centres unmarked) [Compound I-15], the MIC came out at 4 µg/mL in assay [1] (setting [5]), 1 µg/mL in assay [2] (setting [6]), 1 µg/mL in assay [3] (setting [7]) and 0.25 µg/mL in the assay with P. aeruginosa SR24 (setting [8]).
With `NCC[N+]1(CC2=C(C(=O)[O-])N3C(=O)[C@@H](NC(=O)/C(=N\OC(CNC(=O)c4ccc(O)c(O)c4Cl)C(=O)O)c4nc(N)sc4Cl)[C@H]3SC2)CCCC1` (some centres unmarked) [Compound I-16], the MIC in assay [1] (setting [5]) was determined as 2 µg/mL (≈ 2.54 µM); in assay [2] (setting [6]), 0.125 µg/mL (≈ 0.159 µM); in assay [3] (setting [7]), 1 µg/mL (≈ 1.27 µM); with P. aeruginosa SR24 (setting [8]) it was 0.25 µg/mL (≈ 0.317 µM).
